Experiment [1] deals with T1, subtilisin BPN' variant G166D (Bacillus amyloliquefaciens, UniProt P00782, G273D).
T1 construct: correct folding and maturation of subtilisin requires autolytic cleavage of its propeptide; made in house; host or cells: Bacillus subtilis BG2036 (protease-deficient), secreted
The experiment is described as follows: Kinetic analysis, hydrolysis of suc-AAPX-pna substrates. As to conditions: Lys P1 versus Phe P1 substrate. The format is biochemical. From the text:
To probe the effects of the G166E and G166D on specificity at the P1 position we used substrates having the form suc-AAPX-pna (SEQ ID NO: 69) where X was either Lys (SEQ ID NO. 58), Arg (SEQ ID NO. 59), Phe (SEQ ID NO. 56), Met (SEQ ID NO. 60) or Gln (SEQ ID NO. 61). Whereas the wild-type enzyme preferred Phe>Met>Lys>Arg>Gln, the G166E preferred Lys^~ Phe>Arg^~ Met>Gln, and G166D preferred Lys>Phe^~ Arg^~ Met>Gln. Thus, both the acidic substitutions at position 166 caused a shift in preference for basic residues at the P1 site, as previously reported (Wells, J. A., Powers, D. B., Bott, R. R., Graycar, T. P.and Estell, D. A. (1987a), Proc. Natl. Acad. Sci. USA 84:1219-1223).
Subtilisins were assayed by measuring the initial rates of hydrolysis of p-nitroanilide tetrapeptide substrates in 0.4 mL 20 mM Tris-Cl pH 8.2, 4% (v/v) dimethyl sulfoxide at (25±0.2)° C. as described previously (Estell, D. A., Graycar, T. P., Miller, J. V., Powers, D. B., Burnier, J. P., Ng, P. G. and Wells, J. A. (1986)Science 233:659-663). Enzyme concentrations (E)0 were determined spectrophotometrically using E280 nm 0.1%=1.17 (Matsubara, H.; Kasper, C B.; Brown, D. M.; and Smith, E. L. (1965)J. Biol. Chem.,240:1125-1130.), and were typically 5-50 nM in reactions. Initial rates were determined for nine to twelve different substrate concentrations over the range of 0.001-2.0 mM. […]

Experiment [2] has as its target T2, subtilisin BPN' variant N62D/Y104D/G166D (SEQ ID NO: 75) (Bacillus amyloliquefaciens, UniProt P00782, G273D/N169D/Y211D).
T2 construct: the mature enzyme +1 to +275; made in house; host or cells: Bacillus subtilis BG2036 (protease-deficient), secreted
T2 sequence (P00782 108-382 N169D/Y211D/G273D): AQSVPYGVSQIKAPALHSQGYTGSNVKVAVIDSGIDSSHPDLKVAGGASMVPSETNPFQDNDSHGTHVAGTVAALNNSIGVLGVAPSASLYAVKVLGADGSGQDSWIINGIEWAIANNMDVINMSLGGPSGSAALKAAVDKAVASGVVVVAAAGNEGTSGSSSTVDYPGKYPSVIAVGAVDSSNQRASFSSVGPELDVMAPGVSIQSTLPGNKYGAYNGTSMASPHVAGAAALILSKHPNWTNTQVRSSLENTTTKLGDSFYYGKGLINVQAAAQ
Nature of the experiment: Kinetic analysis, hydrolysis of succinyl-tetrapeptide-pNA substrates. The format is biochemical. As to conditions: relative to succinyl-RAKR-pNA. Here is the method: The mature N62D/Y104D/G166D variant was purified and analyzed for its ability to hydrolyze several tetrapeptide-pNA substrates.
Kinetic analysis of WT, N62D/G166D, and N62D/Y104D/G166D subtilisin BPN'
Subtilisins were assayed by measuring the initial rates of hydrolysis of p-nitroanilide tetrapeptide substrates in 0.4 mL 20 mM Tris-Cl pH 8.2, 4% (v/v) dimethyl sulfoxide at (25±0.2)° C. as described previously (Estell, D. A., Graycar, T. P., Miller, J. V., Powers, D. B., Burnier, J. P., Ng, P. G. and Wells, J. A. (1986)Science 233:659-663). Enzyme concentrations (E)0 were determined spectrophotometrically using E280 nm 0.1%=1.17 (Matsubara, H.; Kasper, C B.; Brown, D. M.; and Smith, E. L. (1965)J. Biol. Chem.,240:1125-1130.), and were typically 5-50 nM in reactions. Initial rates were determined for nine to twelve different substrate concentrations over the range of 0.001-2.0 mM. Plots of initial rates (v) versus substrate concentration (S) were fitted to the Michaelis-Menton equation, [formula] to determine the kinetic constants kcat and Km (Fersht, A. in "Enzyme Structure and Mechanism", Second edition, Freeman and Co., N.Y.) using the program Kaleidagraph (Synergy Software, Reading, Pa.).

Experiment [3] deals with T3, subtilisin (Bacillus amyloliquefaciens, UniProt P00782).
T3 sequence (P00782 108-382): T2 sequence (P00782 108-382 N169D/Y211D/G273D) with D62N, D104Y, D166G
Conditions: Estell et al. (1986) Science 233:659-663; cited from earlier work.

Structures are written as SMILES. Numbering of substitutions follows the chain as printed. Residues, ends and D or L forms follow the SMILES beside them.

T1 sequence (P00782 108-382 G273D): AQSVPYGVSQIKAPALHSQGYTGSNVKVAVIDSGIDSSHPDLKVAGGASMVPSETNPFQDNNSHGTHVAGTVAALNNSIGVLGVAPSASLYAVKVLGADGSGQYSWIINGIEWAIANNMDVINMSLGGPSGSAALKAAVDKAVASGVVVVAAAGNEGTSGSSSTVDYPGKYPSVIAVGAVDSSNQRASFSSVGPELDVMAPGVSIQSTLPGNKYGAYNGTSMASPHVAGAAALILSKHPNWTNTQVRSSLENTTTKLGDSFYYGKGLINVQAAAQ

On to `C[C@H](NC(=O)CCC(=O)O)C(=O)N[C@@H](C)C(=O)N1CCC[C@H]1C(=O)N[C@@H](CCCCN)C(=O)Nc1ccc([N+](=O)[O-])cc1` [Lys P1 substrate] (HELM PEPTIDE1{[O=C(O)CCC(=O)[*:2]].A.A.P.K.[O=[N+]([O-])c1ccc(N[*:1])cc1]}$$$$V2.0), for which, in experiment [1], the “ratio of catalytic efficiencies, times faster cleaved than the Phe P1 substrate” value is on record as “about 3 times”. For `C[C@H](NC(=O)CCC(=O)O)C(=O)N[C@@H](C)C(=O)N1CCC[C@H]1C(=O)N[C@@H](Cc1ccccc1)C(=O)Nc1ccc([N+](=O)[O-])cc1` [succinyl-AAPF-pNA, N-succinyl-alanine-alanine-proline-phenylalanyl-p-nitroanalide] (HELM PEPTIDE1{[O=C(O)CCC(=O)[*:2]].A.A.P.F.[O=[N+]([O-])c1ccc(N[*:1])cc1]}$$$$V2.0), the “catalytic efficiency (kcat/Km), fold less efficiently hydrolyzed than succinyl-RAKR-pNA” value in experiment [2] is 6×10^4 fold. In addition, the “kcat /Km ratio” value in experiment [3] is 300000 M⁻¹ s⁻¹.

(Values after patent US5837516A, “Subtilisin variants capable of cleaving substrates containing basic residues” (Genentech, Inc., priority 1995, dated 1998).)
